Among the data in US20230250108A1, “TETRAHYDROISOQUINOLINE COMPOUNDS AND USE THEREOF” (JIANGSU SIMCERE PHARMACEUTICAL CO., LTD., priority 2020, published 2023) are half-life and IC50 values, retold here.

Structures can show the parent of a compound that is named as a salt. Where two headings read alike, the source gives them in different places.

Series [1] can be described thus: Hepatocellular metabolic stability test, mouse hepatocytes.
Description: (§2) Experimental materials: Human hepatocytes were purchased from Biopredic; mouse hepatocytes were purchased from BioIVT; acetonitrile and methanol were purchased from Merck & Co., Inc.; AOPI dyes were purchased from Nexcelom; dexamethasone was purchased from NIFDC; DMSO was purchased from Beijing Solarbio Science & Technology Co., Ltd.; DPBS (10×), GlutaMAX™-1 (100×) and recombinant human insulin were purchased form Gibco by Life Technologies; fetal bovine serum was purchased from Corning; formic acid was purchased from DIKMAPURE; Isotonic Percoll was purchased from GE Healthcare; alprazolam was purchased from Supelco; caffeine was purchased from ChromaDex.inc; and HEPES, tolbutamide and Williams' Medium E were purchased from Sigma.
(§3) The powder of a test substance was formulated with DMSO into a stock solution with a high concentration, which was diluted to a working solution of 100 μM with acetonitrile prior to use. The final concentration of the test substance was 1 μM.
(§4) 49.5 mL of Williams'E Medium and 0.5 mL of GlutaMAX were mixed as an incubation media. Hepatocyte thawing media and incubation media were placed in a 37° C. water-bath and pre-heated for at least 15 minutes prior to use. A tube of hepatocytes stored at an ultra-low temperature was taken and the hepatocytes were ensured to be at a frozen state at a low temperature prior to thawing. The hepatocytes were rapidly placed in a 37° C. water-bath and gently shaken until all the ice crystals were dispersed, and then after 70% ethanol was sprayed, the hepatocytes were transferred to a biosafety cabinet. The content of the tube was poured into a centrifugal tube containing 50 mL of thawing media and centrifuged at 100 g for 10 minutes. After centrifugation, the thawing media was aspirated, and a sufficient amount of incubation media was added to obtain a cell suspension with a cell density of about 1.5×10^6 cells/mL. The hepatocytes were counted, and the viable cell density was determined using Cellometer Vision, and the survival rate of the hepatocytes must be higher than 75%. The hepatocyte suspension was diluted by using the incubation media to a viable cell density of 0.5×10^6 viable cells/mL.
(§5) 247.5 μL of viable cell (human hepatocytes or mouse hepatocytes) suspension or media were transferred into a 96-well deep-well plate, and the deep-well plate was placed in a vortex incubator and pre-heated for 10 minutes. Incubation of all the samples was performed in parallel duplicate. Test substance (2.5 μL, 100 μM) was added into each well to start the reaction and the deep-well plate was placed in the vortex incubator again. The samples were incubated, and 25 μL of the suspension was taken at 0, 15, 30, 60, 90 and 120 minutes, respectively. 125 μL of acetonitrile containing internal standard (100 nM alprazolam, 200 nM caffeine, and 100 nM tolbutamide) was added to terminate the reaction. The mixture was vortexed for 10 minutes and centrifuged at 3220 g, 4° C. for 30 minutes. After centrifugation, 100 μL of the supernatant was transferred into the loading plate and 150 μL of pure water was added and mixed uniformly for LC-MS/MS analysis.
(§6) All the data calculation was performed by the Microsoft Excel software. The peak area was detected by extracting the ion chromatogram. The in vitro half-life (t1/2) of the parent drug was detected by performing linear fitting of the natural logarithm of elimination percent of the parent drug and time.
(§7) The in vitro half-life (t1/2) was calculated by means of the slope:
The next series deals with SDMA in Z-138 cells. The series can be described thus: Inhibitory activity on SDMA in cells (immunofluorescent assay). It is filed as cell-based. The conditions noted are these: Homo sapiens, 48 h, 2 days, read-out: Inhibition of SDMA in cells IC50. The text has this: Materials and cells: Z-138 cells were purchased from ATCC (USA); IMDM medium and penicillin-streptomycin were purchased from Sigma PLC. (USA); horse serum was purchased from Hyclone (USA); Hoechst antibodies were purchased from Invitrogen (USA); Alexa Fluor 488 goat anti-rabbit IgG antibodies were purchased from Invitrogen (USA); Anti-dimethyl-Arginine symmetric (SYM11) antibodies were purchased from Merck & Co., Inc. (USA); DPBS was purchased from Gibco (USA); Nonfat Dry milk was purchased from Cell Signaling Technology (USA); paraformaldehyde was purchased from Beijing Solarbio Science & Technology Co., Ltd.; 384-well plate and Echo 550 Liquid Handler were purchased from Labcyte Inc. (USA); and an ImageXpress Nano was purchased from Molecular Devices (USA).
(§1) Cell culture: Z-138 cells were cultured in an IMDM culture solution containing 10% Horse serum+1% penicillin−streptomycin at 37° C., 5% CO2. Cells in logarithmic growth phase were suitable for the experiment.
Immunofluorescent assay: The effects of the compounds on SDMA in Z-138 cells were detected by using immunofluorescence. The cells were adjusted to the concentration of 1*10^5/mL and 40 μL was inoculated in each well of the 384-well plate (4000/well) and equilibrated for 10-15 minutes at 37° C., 5% CO2. The compound was added into a 384-well plate by using the Echo 550 Liquid Handler with the final concentration of 0-300 nM (initial concentration: 300 nM, 3-fold dilution, for 10 points), and the DMSO content was 0.1%. The cell plate was placed at 37° C., 5% CO2 and incubated for 2 days. 40 μL of 8% paraformaldehyde was added into each well and incubated at room temperature for 30 minutes. The supernatant was discarded, the plate was washed with DPBS, and 40 μL of 0.5% PBST (phosphate buffer with Tween) was added into each well and incubated at room temperature for 60 minutes. The supernatant was discarded, the plate was washed with 0.05% PBST, and 40 μL of a blocking solution (1% Nonfat milk in 0.05% PBST) was added into each well and incubated at room temperature for 60 minutes. The supernatant was discarded, and 20 μL of the primary antibody (SYM11, diluted with a blocking solution at 1:500) was added into each well and maintained at 4° C. overnight. The supernatant was discarded, the plate was washed with 0.05% PBST, 20 μL of the secondary antibody (Alexa Fluor 488 goat anti-rabbit and Hoechst, diluted with a blocking solution at 1:1000 and 1:5000, respectively) was added to each well and incubated at room temperature for 60 minutes. The supernatant was discarded, the plate was washed with 0.05% PBST, and the fluorescent intensity was detected with ImageXpress Nano.

In another series the target is T1, PRMT5/MEP50 (Homo sapiens, UniProt O14744).
T1 construct: purchased BPS Bioscience Inc. (USA)
Kind of series: PRMT5 enzymatic activity inhibition experiment (AlphaScreen). Format: biochemical. From the text: Materials: PRMT5/MEP50 proteins were purchased from BPS Bioscience Inc. (USA); Histone H4 Peptide substrate was purchased from Sangon Biotech (Shanghai) Co., Ltd.; Anti-Histone H4 (symmetric dimethyl R3) antibody—ChIP Grade was purchased from Abcam PLC. (USA); S-(5′-Adenosyl)-L-methionine chloride dihydrochloride was purchased from Sigma PLC. (USA); 384-well plate, AlphaScreen Streptavidin Donor beads, AlphaScreen Protein A Acceptor beads, and Envision 2104 multi-label Reader were purchased from Perkin-Elmer Instruments (USA) Corporation; and Echo 550 Liquid Handler was purchased from Labcyte Inc. (USA).
Enzymatic activity assay: The compounds were added into a 384-well plate by using the Echo 550 Liquid Handler with the final concentration of 0-1000 nM (initial concentration: 1000 nM, 3-fold dilution, for 10 points), and the DMSO content was 0.5%. 10 μL of a 2× PRMT5/MEP50 solution was added into each well and incubated at room temperature for 30 minutes. 10 μL of 2× PRMT5/MEP50 substrate solution was added to each well to start the reaction and incubated at room temperature for 60 minutes. A 6× detection reagent containing AlphaScreen Protein A Acceptor beads and Anti-Histone H4 (symmetric dimethyl R3) antibodies was prepared and 5 μL was added to each well. The plate was incubated at room temperature for 60 minutes. A 6× detection reagent containing AlphaScreen Streptavidin Donor beads was prepared and 5 μL was added to each well. The plate was incubated at room temperature for 60 minutes. The signal values were detected by using the Envision.
(In general: Bead proximity is the source of the signal in Alpha formats.)

In another series the test system is Z-138 cells. Kind of series: Inhibitory activity on tumor cell proliferation (Cell-Titer Glo, 8 days). Format: cell-based. The following applies: Homo sapiens, 192 h, read-out: Inhibition of cell proliferation Z-138 IC50. The procedure: Materials and cells: Z-138 cells were purchased from ATCC (USA); IMDM medium and penicillin-streptomycin were purchased from Sigma PLC. (USA); horse serum was purchased from Hyclone (USA); 96-well plate was purchased from Corning (USA); and Cell-Titer Glo reagent was purchased from Promega (USA).
as §1
Detection of cell proliferation activity: The inhibitory activities of the compounds on the proliferation of Z-138 cells were detected by using the Cell-Titer Glo reagent. The concentrations of the cells were adjusted, and 180 μL was inoculated in each well of the 96-well plate (500/well) and equilibrated for 10-15 minutes at 37° C., 5% CO2. 20 μL of a culture solution containing the compounds was added into each well with the final concentration reaching 0-300 nM (initial concentration: 300 nM, 3-fold dilution, for 10 points), and the DMSO content was 0.1%. The cell plate was placed at 37° C., 5% CO2 and incubated for 8 days. Culture solution was replaced at day 4: 100 μL of the supernatant was slowly aspirated and 100 μL of a fresh culture solution containing the compounds was provided as a supplement while the concentrations of the compounds were held constant. The cell viability was detected by using the Cell-Titer Glo reagent.

Series [2] can be described thus: Hepatocellular metabolic stability test, human hepatocytes.
Description: as §2, §3, §4, §5, §6, §7
Series [3] in a line: in vitro. The following applies: human, hepatocytes.
Description: as §2, §3, §4, §5, §6, §7
Series [4] can be described thus: in vitro. The following applies: mouse, hepatocytes.
Description: as §2, §3, §4, §5, §6, §7
Setting [5] is: PRMT5/MEP50, Histone H4 peptide substrate, read-out: Inhibition of enzymatic activity IC50.

T1 sequence (O14744 2-637 limits assumed): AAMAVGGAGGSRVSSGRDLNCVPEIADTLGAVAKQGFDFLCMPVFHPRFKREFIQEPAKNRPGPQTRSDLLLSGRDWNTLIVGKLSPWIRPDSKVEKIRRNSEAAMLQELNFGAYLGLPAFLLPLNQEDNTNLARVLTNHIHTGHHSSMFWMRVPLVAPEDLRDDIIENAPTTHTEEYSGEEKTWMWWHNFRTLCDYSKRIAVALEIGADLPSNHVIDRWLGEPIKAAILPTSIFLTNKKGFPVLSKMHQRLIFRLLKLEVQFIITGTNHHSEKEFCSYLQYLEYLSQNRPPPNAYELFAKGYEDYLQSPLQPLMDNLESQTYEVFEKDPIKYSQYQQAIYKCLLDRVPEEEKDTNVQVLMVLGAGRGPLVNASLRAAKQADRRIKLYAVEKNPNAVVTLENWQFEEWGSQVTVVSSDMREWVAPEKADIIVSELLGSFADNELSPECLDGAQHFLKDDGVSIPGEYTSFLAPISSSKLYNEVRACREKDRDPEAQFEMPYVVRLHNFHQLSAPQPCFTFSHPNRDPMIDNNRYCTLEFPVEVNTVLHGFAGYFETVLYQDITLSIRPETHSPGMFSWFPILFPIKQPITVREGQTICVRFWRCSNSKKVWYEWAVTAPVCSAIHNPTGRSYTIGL
T1 sequence (Q9BQA1 2-342 partner limits assumed): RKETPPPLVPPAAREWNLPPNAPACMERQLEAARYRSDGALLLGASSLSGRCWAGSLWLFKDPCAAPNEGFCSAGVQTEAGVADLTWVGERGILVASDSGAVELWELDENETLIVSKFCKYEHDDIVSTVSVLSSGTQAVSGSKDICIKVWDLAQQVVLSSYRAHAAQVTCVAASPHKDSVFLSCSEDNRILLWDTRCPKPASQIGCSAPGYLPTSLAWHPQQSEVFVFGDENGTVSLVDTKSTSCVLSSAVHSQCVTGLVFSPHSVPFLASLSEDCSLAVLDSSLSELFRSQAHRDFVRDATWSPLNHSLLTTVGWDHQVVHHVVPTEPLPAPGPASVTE

With `CCN1CCN(C[C@@H](O)[C@@H]2Cc3ccccc3CN2)C(=O)c2ccc(C(=O)N3C4CCC3COC4)cc21.Cl` [Compound 001, 8-(3-oxa-8-azabicyclo[3.2.1]octane-8-carbonyl)-1-ethyl-4-((R)-2-hydroxy-2-((S)-1,2,3,4-tetrahydroisoquinolin-3-yl)ethyl)-1,2,3,4-tetrahydro-5H-benzo[e][1,4]diazepin-5-one hydrochloride], the half-life at 1 μM in series [1] turned out to be 2.04 h; in series [2], 24.5 h. In addition, the IC50 with SDMA in Z-138 cells was 3.8 nM; against PRMT5/MEP50, 4.56 nM; in the series with Z-138 cells, 3.47 nM.
`CCN1CCN(C[C@@H](O)[C@@H]2Cc3ccccc3CN2)C(=O)c2ccc(C(=O)N3CCC4(CC3)CC(C#N)C4)cc21` [Compound 003, 7-(1-ethyl-4-((R)-2-hydroxy-2-((S)-1,2,3,4-tetrahydroisoquinolin-3-yl)ethyl)-5-oxo-2,3,4,5-tetrahydro-1H-benzo[e][1,4]diazepine-8-carbonyl)-7-azaspiro[3.5]nonane-2-carbonitrile]: the IC50 in the series on SDMA in Z-138 cells amounted to 0.8 nM; at PRMT5/MEP50 (setting [5]), 2.02 nM; in the series with Z-138 cells, 1.21 nM. Besides, the figures for the half-life at 1 μM in the series “in vitro [3]” and in “in vitro [4]” were 131 h and 1.97 h, respectively.
On to `CCN1CCN(C[C@@H](O)[C@@H]2Cc3ccccc3CN2)C(=O)c2ccc(C(=O)N3CCC4(CCC(OC)CC4)CC3)cc21` [Compound 006, 1-ethyl-4-((R)-2-hydroxy-2-((S)-1,2,3,4-tetrahydroisoquinolin-3-yl)ethyl)-8-(9-methoxy-3-azaspiro[5.5]undecane-3-carbonyl)-1,2,3,4-tetrahydro-5H-benzo[e][1,4]diazepin-5-one hydrochloride], for which the IC50 with SDMA in Z-138 cells worked out at 1.8 nM; on PRMT5/MEP50 (setting [5]), 3.62 nM; with Z-138 cells, 4.8 nM.
For the molecule `CCN1CCN(C[C@@H](O)[C@@H]2Cc3ccccc3CN2)C(=O)c2ccc(C(=O)N3CCC4(CC3)CC(O)C4)cc21` [Compound 024, 1-ethyl-4-((R)-2-hydroxy-2-((S)-1,2,3,4-tetrahydroisoquinolin-3-yl)ethyl)-8-(2-hydroxy-7-azaspiro[3.5]nonane-7-carbonyl)-1,2,3,4-tetrahydro-5H-benzo[e][1,4]diazepin-5-one], the IC50 with Z-138 cells was 10.6 nM. Further, the half-life at 1 μM came out at 12.9 h in the series “in vitro [3]” and 0.588 h in “in vitro [4]”.
With `O=C1c2ccc(C(=O)N3C4CCC3COC4)cc2OCCN1C[C@@H](O)[C@@H]1Cc2ccccc2CN1` [Compound 007, 8-(3-oxa-8-azabicyclo[3.2.1]octane-8-carbonyl)-4-((R)-2-hydroxy-2-((S)-1,2,3,4-tetrahydroisoquinolin-3-yl)ethyl)-3,4-dihydrobenzo[f][1,4]oxazepin-5(2H)-one], the figures for the IC50 on PRMT5/MEP50 (setting [5]) and with Z-138 cells were 7.66 nM and 7.55 nM, respectively.
As to `CCN1CCN(C[C@@H](O)[C@@H]2Cc3ccccc3CN2)C(=O)c2ccc(C(=O)N3C4CCC3CC(OC)C4)cc21.Cl` (stereo partly drawn) [Compound 004, 1-ethyl-4-((R)-2-hydroxy-2-((S)-1,2,3,4-tetrahydroisoquinolin-3-yl)ethyl)-8-(3-methoxy-8-azabicyclo[3.2.1]octane-8-carbonyl)-1,2,3,4-tetrahydro-5H-benzo[e][1,4]diazepin-5-one hydrochloride], the half-life at 1 μM in series [1] stood at 0.871 h; in series [2], 11.2 h. Moreover, the IC50 is 1.4 nM with SDMA in Z-138 cells, 4.53 nM at PRMT5/MEP50 and 1.87 nM in the series with Z-138 cells.
As to `COC1CC2(CCN(C(=O)c3ccc4c(c3)OCCN(C[C@@H](O)[C@@H]3Cc5ccccc5CN3)C4=O)CC2)C1` [Compound 009, 4-((R)-2-hydroxy-2-((S)-1,2,3,4-tetrahydroisoquinolin-3-yl)ethyl)-8-(2-methoxy-7-azaspiro[3.5]nonane-7-carbonyl)-3,4-dihydrobenzo[f][1,4]oxazepin-5(2H)-one], the IC50 came out at 6.1 nM with SDMA in Z-138 cells, 4.96 nM on PRMT5/MEP50 (setting [5]) and 2.97 nM in the series on Z-138 cells.
For `COC1CC2CCC(C1)N2C(=O)c1ccc2c(c1)N(C)CCN(C[C@@H](O)[C@@H]1Cc3ccccc3CN1)C2=O.Cl` (stereo partly drawn) [Compound 005, 4-((R)-2-hydroxy-2-((S)-1,2,3,4-tetrahydroisoquinolin-3-yl)ethyl)-8-(3-methoxy-8-azabicyclo[3.2.1]octane-8-carbonyl)-1-methyl-1,2,3,4-tetrahydro-5H-benzo[e][1,4]diazepin-5-one hydrochloride], the results for the half-life at 1 μM in series [1] and in series [2] were 1.3 h and 5.61 h, respectively. For the same molecule, the IC50 with SDMA in Z-138 cells is 1.5 nM; on PRMT5/MEP50 it was 6.73 nM; with Z-138 cells, 4.27 nM.

One may read the half-life as how long it takes for the measured level to halve. A low value points to rapid decline.
